Measurements reported in US20030208035A1, “Antifungal and/or antibacterial peptides, preparation methods, compositions containing same and methods of treating mammals and/or plants” (priority 2000, published 2003).
Bridges are numbered along the chain shown (N, C = ends). Where no end group is shown, it is not given here.

What was measured:
Type in all cases: cell-based
Candida albicans = experiment: anti-Candida albicans growth inhibition test in liquid medium (96-well microplates); details: fold relative to Ard1
Method: The anti-Candida albicans and anti-Aspergillus fumigatus activities of the different analogues were assessed using a growth inhibition test in liquid medium made in 96-well microplates. The activity of the purified peptides was tested for different dilutions of each peptide and was compared with those of heliomycin and Ard1 quantified under the same conditions.
The activity test was made directly on yeasts derived from a stock frozen at −80° C., in Sabouraud medium containing 15% glycerol. The density of the yeasts in the stock was adjusted to an optical density of 0.4 OD at 600 nm. After slow thawing at room temperature, the yeast suspension was reduced by dilution to an optic density of 1 mOD at 600 nm in Sabouraud medium, and 90 μl of this dilution were deposited in the wells of microtitration plates in the presence of 10 μl of sample to be tested. Control samples were systematically made in which 10 μl of sample were replaced by 10 μl of sterile water. Media sterility was controlled by incubating 10 μl sterile water in the presence of 90 μl of medium. The samples were incubated at 30° C. for 40 h under slight stirring and the antifungal activity was quantified by measuring optic density at 600 nm.

C. glabrata = system: C. glabrata
Method: (§1) Candida yeasts (C. albicans, C. glabrata, C. dubliensis, C. tropicalis, C. kefyr, C. krusei and C. parapsilosis—donated by Dr. H. Koenig, Hôpital Civil, Strasbourg), fluconazole-resistant C. albicans (n^o245962, n^o2332, n^o246335 and n^o3552, donated by Drs. J.Meis and J. Mouton, University Hospital, Microbiology Department, Nijmegen, Netherlands), and Cryptoccocus neoformans (donated by Dr. H. Koenig, Hôpital Civil, Strasbourg) were seeded on Sabouraud-Cloramphenicol Agar slant gelose (Biomerieux) and left to incubate for 24 h at 30° C. (Candida sp.) and for 72 h at 37° C. (Cryptoccocus neoformans).
(§2) Some yeast colonies were placed in suspension in liquid Sabouraud medium (Biomerieux) to obtain a final concentration of 0.1 OD at 600 nm corresponding to 2.5.10^6 yeasts/ml.
(§3) The yeast suspension was adjusted to 5.10^3 yeast/ml in Sabouraud medium.
(§4) 100 μl of peptide dilutions (concentration of 50 with 0.097 μg/ml peptide) were deposited in microtitration plates. After adding […] of yeast suspension with 5.10^3 yeast/ml i.e. 500 yeasts, the test plates were incubated 24 h at 30° C. (Candida) under slow shaking or 72 h at 37° C. (Cryptoccocus).
(§5) Determination of minimal inhibiting concentrations (MIC) was made by measuring absorbency at 600 nm using a spectrophotometer-microtitration plate reader. The MIC score was set at a growth inhibition rate of 50%.

C. kefyr = system: C. kefyr
Method: as §1, §2, §3, §4, §5

C. krusei = system: C. krusei
Method: as §1, §2, §3, §4, §5

C. tropicalis = system: C. tropicalis
Method: as §1, §2, §3, §4, §5

Cryptoccocus neoformans = details: 72 h
Method: as §1, §2, §3, §4, §5

A. flavus = system: A. flavus
Method: (§6) The antifungal activity was detected by a growth inhibition test in a liquid medium.
(§7) The filamentous fungi (A. fumigatus, A. flavus and A. terreus, donated by Dr. H. Koenig, Hôpital Civil, Strasbourg; and S. prolificans and F. solani donated by Drs. J. Meis and J. Mouton, University hospital, Microbioolgy Department, Nijmegen, Netherlands) were seeded on Malt-Agar slant gelose (Biomerieux) and incubated 7 days at 37° C.
(§8) The spores were then collected with 10 ml YPG medium containing 0.05% Tween 20 and filtered through a gauze. The spores were centrifuged 10 min at 1700 rpm, the residue was collected in YPG (1 g Yeast extract, 1 g Peptone, 3 g Glucose per 1 l).
(§9) The suspension was counted with a Coverslide and adjusted to 10^4 spores/ml.
(§10) 100 μl of peptide dilutions (concentration of 50 with 0.097 μg/ml peptide) were deposited in microtitration plates. 100 μl with 10^4 spores/ml of filamentous fungi, i.e. 1000 spores, were then added.
(§11) The test plates were incubated 48 h at 37° C.
(§12) Determination of minimum inhibiting concentrations (MIC) was made by observing well cover rate. The MIC score was set at 50% well covering.

Alternaria brassicola = details: 48 h
Method: (§13) 100 μl of peptide dilutions (concentration 50 with 0.097 mg/ml peptide) were deposited in microtitration plates.
(§14) After adding 100 μl of frozen spores with 10^4 spores/ml of A. brassicola and N. crassa (donated by Dr. Bullet, IBMC, Strasbourg) the test plates were incubated 48 h at 30° C.
(§15) Determination of minimal inhibiting concentrations (MIC) was made by observing well cover rate. The MIC was set at 50% well covering.

Neurospora crassa = details: 48 h
Method: as §13, §14, §15

A. terreus = system: A. terreus
Method: as §6, §7, §8, §9, §10, §11, §12

Row | Sequence | Activity C.a. (relative activity in relation to Ard1) (Candida albicans) | MIC (C. glabrata) | MIC (C. kefyr) | MIC (C. krusei) | MIC (C. tropicalis) | MIC (Cryptoccocus neoformans) | MIC (A. flavus) | MIC (Alternaria brassicola) | MIC (Neurospora crassa) | MIC (A. terreus)
1 | DKLIGSCVWGAVNYTSNCNAECKRRGYKGGHCGSFANVNCWCQT (disulfide 7-32, 18-40, 22-42 (inferred)) [pEM31] | 2 | >25 µg/mL | >25 µg/mL | 3.125 µg/mL | 6.25 µg/mL | 12.5 µg/mL | >25 µg/mL | >25 µg/mL | <0.048 µg/mL | –
2 | DKLIGSCVWGAVNYTSNCNAECKRRGYKGGHCGSFLNVNCWCET (disulfide 7-32, 18-40, 22-42 (inferred)) [pEM35] | 4 | >25 µg/mL | >25 µg/mL | 1.56 µg/mL | 1.56 µg/mL | 6.25 µg/mL | 3.125 µg/mL | >25 µg/mL | <0.048 µg/mL | 6.25 µg/mL
3 | DKLIGSCVWGAVNYTSNCNAECKRRGYKGGHCGSFLNVNCWCQT (disulfide 7-32, 18-40, 22-42 (inferred)) [pEM46] | 4-8 | >25 µg/mL | >25 µg/mL | 1.56 µg/mL | 3.125 µg/mL | 6.25 µg/mL | – | 25 µg/mL | 0.195 µg/mL | 6.25 µg/mL
4 | DKLIGSCVWGAVNYTSNCRAECKRRGYKGGHCGSFANVNCWCET (disulfide 7-32, 18-40, 22-42 (inferred)) [pEM51] | 2-4 | >25 µg/mL | >25 µg/mL | 1.56 µg/mL | 3.125 µg/mL | 1.56 µg/mL | 6.25 µg/mL | >25 µg/mL | 0.195 µg/mL | 3.125 µg/mL
